Values quoted from earlier work in patent US20110059171A1 (LABORATORIOS SENOSIAIN S.A. DE C.V., priority 2008, published 2011).

Experiments:
[1] = in vivo

| water solubility | excreted without any change in urine [1] | bound to proteins (proteins) | SMILES |
| --- | --- | --- | --- |
| highly water-soluble |  |  | O=C(c1ccccc1)c1ccc2n1CCC2C(=O)O (racemic) [Ketorolac tromethamine, (+−)-5(benzoyl)-2,3-dihydro-1H-pyrrolizine-1-carboxylic acid tris (hydroxymethyl)methylamine] |
|  | about 90% | More than 99% | O=C(c1ccccc1)c1ccc2n1CCC2C(=O)O (stereo not drawn) [Ketorolac] |
